Source: patent US4510136A (priority 1983, dated 1985)

Assays:
Assay type in all cases: in vivo
Helminthosporium maydis = assay: Southern corn leaf blight control on sprayed corn seedlings (Example 83); conditions: 100 ppm spray, day before inoculation; for pest or weed control at 100 ppm: Bipolaris maydis, 192 h
Experimental: The compounds of the previous examples were again dissolved in acetone in an amount equal to 6% of the final volume and then suspended at a concentration of 100 ppm in purified water containing 250 ppm of the surfactant TREM 014 (polyhydric alcohol esters). These suspensions were sprayed to the point of run-off on corn seedlings. The following day, the plants were inoculated with a spore suspension of Helminthosporium maydis, causal agent of southern corn leaf blight, and incubated in a saturated humidity chamber at 20° for 24 hours and then in a growth room for an additional 7 days, when disease ratings were made. Treated plants from successful treatments had few or no lesions while the untreated plants had numerous lesions on each leaf. Phytotoxicity expressed as growth reduction was observed on some of the plants in association with disease control.

Rhizoctonia solani = assay: Rice sheath blight control on sprayed rice seedlings (Example 87); conditions: 100 ppm spray, day before inoculation; for pest or weed control at 100 ppm: Rhizoctonia solani, 168 h
Experimental: The compounds of the previous examples were again dissolved in acetone in an amount equal to 6% of the final volume and then suspended at a concentration of 100 ppm in purified water containing 250 ppm of the surfactant TREM 014 (polyhydric alcohol esters). This suspension was sprayed to the point of run-off on rice seedlings. The following day, the plants were inoculated with a mixture of bran and the mycelium of Rhizoctonia solani, causal agent of sheath blight of rice, and incubated in a growth room for 7 days. Disease ratings were then made. Treated plants from successful treatments had little sheath blight in contrast to untreated plants which were covered with sheath blight.

Erysiphe cichoracearum = assay: Cucumber powdery mildew control on sprayed cucumber seedlings (Example 80); conditions: 100 ppm spray, day before inoculation; for pest or weed control at 100 ppm: Golovinomyces cichoracearum, 168 h
Experimental: (§1) These suspensions were sprayed to the point of run-off, on cucumber seedlings. The following day, the plants were inoculated with a spore suspension of the fungus Erysiphe cichoracearum, causal agent of cucumber powdery mildew, and incubated in a growth room for 7 days. Disease ratings were then made. Treated plants from successful treatments had little or no powdery mildew in contrast to untreated plants which were covered with powdery mildew. Phytotoxicity in the form of growth reduction or hormonal effects was observed on some of the plants in association with disease control.

Cercospora arachidicola = assay: Peanut early leafspot control on sprayed peanut seedlings (Example 84); conditions: 100 ppm spray, day before inoculation; for pest or weed control at 100 ppm: Mycosphaerella arachidis, 360 h, read-out: % Control Peanut Easly Leafspot
Experimental: These suspensions were sprayed to the point of run-off on peanut seedlings. The following day, the plants were inoculated with a spore suspension of Cercospora arachidicola, causal agent of peanut early leafspot, and incubated in a saturated humidity chamber at 27° for 24 hours and then in a growth room for an additional 14 days, when disease ratings were made. Treated plants from successful treatments had few or no leafspots while the untreated plants had numerous leafspots.

Pyricularia oryzae = assay: whole plant or invertebrate; conditions: for pest or weed control at 100 ppm: Pyricularia oryzae, 168 h, read-out: % Control of Rice Blast, 100 ppm spray, day before inoculation; for % Control of Rice Blast: 100 ppm spray, day before inoculation
[1] = test system: Puccinia recondita var. tritici; assay: Wheat leaf rust control on sprayed wheat seedlings (Example 79); conditions: 100 ppm spray, day before inoculation; for pest or weed control at 100 ppm: Puccinia recondita, 168 h
Experimental: The compounds of this invention were dissolved in acetone in an amount equal to 6% of the final volume and then suspended at a concentration of 100 ppm in purified water containing 250 ppm of the surfactant TREM 014 (polyhydric alcohol esters). These suspensions were sprayed to the point of run-off on wheat seedlings. The following day, the plants were inoculated with a spore suspension of Puccinia recondita var. tritici, causal agent of wheat leaf rust, and incubated in a saturated humidity chamber at 20° for 24 hours and then in a growth room for an additional 7 days, when disease ratings were made. Treated plants from successful treatments had few or no rust pustules while the untreated plants had numerous rust pustules on each leaf.

Phytophthora infestans = assay: whole plant or invertebrate; conditions: for pest or weed control at 100 ppm: Phytophthora infestans, in Solanum lycopersicum, 168 h, read-out: % Control of Tomato Late Blight, 100 ppm spray, day before inoculation; for % Control of Tomato Late Blight: 100 ppm spray, day before inoculation
Venturia inaequalis = assay: Apple scab control on sprayed apple seedlings (Example 82); conditions: 100 ppm spray, day before inoculation; for pest or weed control at 100 ppm: Venturia inaequalis
Experimental: These suspensions were sprayed to the point of run-off on apple seedlings. The following day, the plants were inoculated with a spore suspension of the fungus Venturia inaequalis, causal agent of apple scab, and incubated in a saturated humidity chamber at 20° for 24 hours and then in a growth room for an additional 10-12 days. Treated plants from successful treatments had fewer apple scab lesions when compared to untreated plants which were covered with scab lesions. Phytotoxicity expressed as growth reduction was observed on some of the plants in association with disease control.

cucumber seedlings = assay: Phytotoxicity on cucumber seedlings (Example 80); set-up: key: G = growth reduction; H = hormonal effects; conditions: 100 ppm spray
Experimental: as §1, with “The compounds of the previous example were again dissolved in acetone in an amount equal to 6% of the final volume and then suspended at a concentration of 100 ppm in purified water containing 250 ppm of the surfactant TREM 014 (polyhydric alcohol esters). These” for “These”

Row | Molecule | pest or weed control at 100 ppm (Helminthosporium maydis) [%] | pest or weed control at 100 ppm (Rhizoctonia solani) [%] | pest or weed control at 100 ppm (Erysiphe cichoracearum) [%] | pest or weed control at 100 ppm (Cercospora arachidicola) [%] | pest or weed control at 100 ppm (Pyricularia oryzae) [%] | pest or weed control at 100 ppm [1] [%] | pest or weed control at 100 ppm (Phytophthora infestans) [%] | pest or weed control at 100 ppm (Venturia inaequalis) [%] | Phytotoxicity on cucumber (cucumber seedlings) | % Control of Southern Corn Leaf Blight (Helminthosporium maydis) [%] | % Control of Rice Sheath Blight (Rhizoctonia solani) [%] | % Control Cucumber Powdery Mildew (Erysiphe cichoracearum) [%] | % Control Peanut Easly Leafspot (Cercospora arachidicola) [%] | % Control of Rice Blast (Pyricularia oryzae) [%] | % Control Wheat Rust [1] [%] | % Control of Tomato Late Blight (Phytophthora infestans) [%] | % Control Apple Scab (Venturia inaequalis) [%]
1 | COc1cccc([Si](C)(C)Cn2cncn2)c1OC [(2,3-Dimethoxyphenyl)dimethyl(1H-1,2,4-triazol-1-ylmethyl)silane] | 0 | 0 | 100 | 0 | 0 | 0 | 0 | 0 | G |  |  |  |  |  |  |  | 
2 | COc1cccc(OC)c1[Si](C)(C)Cn1cncn1 [(2,6-Dimethoxyphenyl)dimethyl(1H-1,2,4-triazol-1-ylmethyl)silane] | 0 | 0 | 100 | 0 | 0 | 0 | 0 | 0 | G |  |  |  |  |  |  |  | 
3 | C[Si](C)(Cn1cncn1)c1ccccc1Cl [(2-Chlorophenyl)dimethyl(1H-1,2,4-triazol-1-ylmethyl)silane] |  | 0 |  |  | 100 | 0 | 0 |  | G |  |  |  |  |  |  |  | 
4 | COc1ccccc1[Si](C)(C)Cn1cncn1 [(2-Methoxyphenyl)dimethyl(1H-1,2,4-triazol-1-ylmethyl)silane] | 70 | 0 | 100 | 0 | 0 | 0 | 0 | 80 | G |  |  |  |  |  |  |  | 
5 | C[Si](C)(Cn1cncn1)C1CCCCC1 [Cyclohexyl(dimethyl)(1H-1,2,4-triazol-1-ylmethyl)silane] | 50 | 0 | 100 | 0 |  | 0 | 0 | 0 | G |  |  |  |  |  |  |  | 
6 | C[Si](C)(Cn1cncn1)c1ccc(C(F)(F)F)cc1 [Dimethyl(1H-1,2,4-triazol-1-ylmethyl)(4-trifluoromethylphenyl)silane] | 50 | 0 | 100 | 0 | 0 | 0 | 0 | 0 | G |  |  |  |  |  |  |  | 
7 | C[Si](C)(Cn1cncn1)c1ccc(OC(F)(F)F)cc1 [Dimethyl(4-trifluoromethoxyphenyl)(1H-1,2,4-triazol-1-ylmethyl)silane] | 80 | 0 | 100 | 50 | 0 | 100 | 0 | 90 | G |  |  |  |  |  |  |  | 
8 | C[Si](Cn1cncn1)(c1ccc(Br)cc1)c1ccc(Br)cc1 [[bis(4-Bromophenyl)]methyl(1H-1,2,4-triazol-1-ylmethyl)silane] | 0 | 0 | 80 | 100 | 90 | 0 | 0 | 80 | G |  |  |  |  |  |  |  | 
9 | COc1ccc([Si](C)(Cn2cncn2)c2ccc(OC)cc2)cc1 [[bis(4-Methoxyphenyl)]methyl(1H-1,2,4-triazol-1-ylmethyl)silane] | 90 | 80 | 0 | 30 | 0 | 0 | 0 | 0 |  |  |  |  |  |  |  |  | 
10 | C[Si](Cn1cncn1)(c1ccc(Cl)cc1Cl)c1ccc(Cl)cc1Cl [bis(2,4-Dichlorophenyl)(methyl)(1H-1,2,4-triazol-1-ylmethyl)silane] | 80 | 0 | 100 | 100 | 0 | 100 | 0 | 100 | G |  |  |  |  |  |  |  | 
11 | O[Si](Cn1cnnc1)(c1ccc(Cl)cc1)c1ccc(Cl)cc1 [bis(4-Chlorophenyl)hydroxy(4H-1,2,4-triazol-4-ylmethyl)silane] | 80 | 0 | 100 | 100 | 0 | 90 | 0 | 100 |  |  |  |  |  |  |  |  | 
12 | Clc1ccc([Si](Cn2cncn2)(c2ccc(Cl)cc2)c2ccc(Cl)cc2)cc1 [tris(4-Chlorophenyl)(1H-1,2,4-triazol-1-ylmethyl)silane] | 0 | 0 | 100 | 0 | 0 | 40 | 0 | 0 |  |  |  |  |  |  |  |  | 
13 | Fc1ccc([Si](Cn2cncn2)(c2ccc(F)cc2)c2ccc(F)cc2)cc1 [tris(4-Fluorophenyl)(1H-1,2,4-triazol-1-ylmethyl)silane] | 0 | 0 | 0 | 90 | 0 | 90 | 0 | 60 |  |  |  |  |  |  |  |  | 
14 | (1,1'-Biphenyl-4-yl)dimethyl(1H-1,2,4-triazol-1-ylmethyl)silane, 1:1 complex with zinc (II) chloride |  |  |  |  |  |  |  |  |  | 90 | 90 | 80 | 100 | 100 | 100 | 90 | 100
15 | (1,1'-Biphenyl-4-yl)dimethyl(1H-1,2,4-triazol-1-ylmethyl)silane, 2:1 complex with cupric chloride |  |  |  |  |  |  |  |  |  | 80 | 80 | 100 | 100 | 0 | 100 | 0 | 100
